# In patent publication US20260274832A1, “COMPOUNDS AND THEIR USE IN TREATING CANCER” (ASTRAZENECA AB, priority 2023, published 2026):
# Legend:
# [1] = target: T1, AR (AR-full length) in LNCaP cells (Homo sapiens, UniProt P10275, T878A); assay: LNCaP Androgen Receptor Imaging Assay (immunofluorescence of endogenous nuclear AR); format: cell-based; conditions: 24 h incubation; for DC50: concentration giving 50% of maximum degradation of AR per curve fit, single experiment or average of two or more; for LNCaP AR Degradation Dmax / Dmax: maximum degradation observed, normalized as % of positive control (prior art AR PROTAC at 3 μM); for Dmax: LNCaP
# T1 construct: the prostate cancer cell line LNCaP (expressing AR-full length); endogenous in cells; host or cells: LNCaP
# Experimental: This cell-based imaging assay uses immuno-fluorescence to measure endogenous nuclear AR staining in the prostate cancer cell line LNCaP (expressing AR-full length). The purpose of the assay is to identify compounds that regulate AR protein level according to the protocol laid out in the steps below.
# (§1) All work was performed in a sterile tissue culture hood up to the point of cell fixation. LNCaP cells were cultured at 6-8×10^6 per T175 flask and split every 3-4 days. Medium: RPMI (R7638, VWR Sigma) containing 10% FCS and 1% glutamine. Cells were plated in black wall transparent bottom plates at a density of 12,000 cells (Cedex™ Cell counter, Beckmann & Coulter), 40 μL per well, using a Multidrop (ThermoFisher).
# (§2) Cells were dosed with test compound diluted in DMSO using an Echo 555/655™ (Labcyte) and the final concentration of DMSO in the well was 0.3%. A neutral control (DMSO) and a positive AR degrader control at 3 μM (a prior art AR PROTAC) were included. The Echo uses acoustic technology to perform direct microplate-to-microplate transfers of DMSO compound solutions to assay plates. The system can be programmed to transfer volumes as low as 2.5 nL in multiple increments between microplates and in so doing generates a serial dilution of compound in the assay plate which is then back-filled to normalise the DMSO concentration across the dilution range. Compounds were dispensed as a 12 point dose response with indicated concentrations. The plates were incubated at 37° C./5% CO2 for 24 h and then fixed and stained as below. 40 μL of 8% paraformaldehyde solution (v/v) in phosphate buffered saline (PBS) was added on top of the media already in the well using a Multidrop to fix plates giving a final concentration of 4% PFA (v/v) for 20-30 minutes (keep in fume hood to minimise PFA exposure). After 20-30 mins, the plates were washed with 3×PBS using a BioTek washer in a fume hood. A shake out of remaining volume in the well was performed to ensure best removal of remaining PBS. At this plates could be stored in PBS after washing for at least 3 days at 4° C., if so, PBS was removed by the BioTek before continuing with the next step.
# (§3) The cells were incubated with a Mouse monoclonal Anti-AR antibody AR441 (DAKO M3562) (1:1000), diluted in modified blocking buffer (PBS+1% BSA+0.1% TritonX); 15 μL/well for 2 h at RT. The plates were then washed with 3×PBS using a BioTek washer. A shake out of remaining volume in the well was performed to ensure best removal of remaining PBS. Cells were then incubated with Goat anti-mouse secondary antibody 488 (Invitrogen A11001) (1:500) and nuclear stain, DRAQ5 (Abcam Ab108410) (1:2000) diluted in modified blocking buffer for 45 mins at room temperature 15 μL/well. Plates are then washed with 3×PBS using a BioTek washer, without final aspiration, and sealed with black plate seals. Plates could be stored after staining for three days at 4° C. before read if required.
# (§4) Plates are read using a Cellomics Cellinsight to measure the Androgen Receptor level in each well. The data is exported into Genedata to perform curve fitting analysis. All data are normalized as % of positive control and the BellFit method automatically determines the correct fit method based on the presence of hook effect, choosing the BellFit when there is a hook and HillFit when there is no hook. Down-regulation of AR is expressed as a DC50 value and determined by calculation of the concentration of compound that is required to give 50% of maximum degradation of AR as per the curve fit for that compound. The maximum degradation observed for each compound is expressed as Dmax. The AR degradation data for compounds is shown in the table below and may be a result from a single experiment or an average of two or more experiments.
# [2] = target: T2, AR (L702H) in LNCaP cells (Homo sapiens, UniProt P10275, L702H/T878A); assay: LNCaP Androgen Receptor L702H Imaging Assay (LNCaP cells engineered by CRISPR/Cas9); format: cell-based; conditions: LNCaP cells with AR L702H mutation, 24 h incubation; for DC50: concentration giving 50% of maximum degradation of AR (L702H) per curve fit; for LNCaP AR (L702H) Degradation Dmax / Dmax: maximum degradation observed, normalized as % of positive control; for Dmax: LNCaP
# T2 construct: engineered to introduce the mutation L702H into the AR gene using CRISPR/Cas9; endogenous in cells; host or cells: LNCaP cells edited by CRISPR/Cas9 at the AR gene
# Experimental: as §1, §2, §3, §4
# At this stage, anti-androgen therapy is largely ineffective due to AR amplification, overexpression or point mutation. One of the point mutations observed in patient populations is L702H in the AR Ligand Binding Domain. LNCAP cells have been engineered to introduce the mutation L702H into the AR gene using CRISPR/Cas9. The previously described imaging-based AR assay will monitor nuclear AR (L702H) levels in these cells to identify compounds that regulate AR (L702H). […]
# T1 sequence (P10275 whole entry T878A): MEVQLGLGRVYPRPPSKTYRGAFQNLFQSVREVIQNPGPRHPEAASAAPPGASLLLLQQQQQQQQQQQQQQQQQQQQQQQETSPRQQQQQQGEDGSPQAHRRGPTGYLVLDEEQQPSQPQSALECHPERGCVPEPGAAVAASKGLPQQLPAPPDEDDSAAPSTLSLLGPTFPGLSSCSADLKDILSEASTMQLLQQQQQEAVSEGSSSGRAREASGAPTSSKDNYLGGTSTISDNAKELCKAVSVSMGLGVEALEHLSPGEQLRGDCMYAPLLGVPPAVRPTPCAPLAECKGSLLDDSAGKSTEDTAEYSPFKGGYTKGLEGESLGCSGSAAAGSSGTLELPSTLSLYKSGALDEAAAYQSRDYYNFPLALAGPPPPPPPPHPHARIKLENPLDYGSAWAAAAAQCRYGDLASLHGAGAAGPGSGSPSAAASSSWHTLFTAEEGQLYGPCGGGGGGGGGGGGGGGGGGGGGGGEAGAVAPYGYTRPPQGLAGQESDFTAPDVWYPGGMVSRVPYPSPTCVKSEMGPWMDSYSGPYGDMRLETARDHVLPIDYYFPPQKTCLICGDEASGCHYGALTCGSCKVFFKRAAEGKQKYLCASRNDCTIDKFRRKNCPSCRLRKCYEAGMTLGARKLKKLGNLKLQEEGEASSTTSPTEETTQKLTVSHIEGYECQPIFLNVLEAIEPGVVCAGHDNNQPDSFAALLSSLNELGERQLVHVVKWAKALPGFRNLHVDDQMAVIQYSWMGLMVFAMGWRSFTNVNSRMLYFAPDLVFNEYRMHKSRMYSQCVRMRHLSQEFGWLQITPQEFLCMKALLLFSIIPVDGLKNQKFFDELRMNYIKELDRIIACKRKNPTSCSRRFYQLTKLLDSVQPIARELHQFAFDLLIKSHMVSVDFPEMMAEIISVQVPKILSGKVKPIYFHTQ
# T1 sequence (Q96SW2 whole entry partner): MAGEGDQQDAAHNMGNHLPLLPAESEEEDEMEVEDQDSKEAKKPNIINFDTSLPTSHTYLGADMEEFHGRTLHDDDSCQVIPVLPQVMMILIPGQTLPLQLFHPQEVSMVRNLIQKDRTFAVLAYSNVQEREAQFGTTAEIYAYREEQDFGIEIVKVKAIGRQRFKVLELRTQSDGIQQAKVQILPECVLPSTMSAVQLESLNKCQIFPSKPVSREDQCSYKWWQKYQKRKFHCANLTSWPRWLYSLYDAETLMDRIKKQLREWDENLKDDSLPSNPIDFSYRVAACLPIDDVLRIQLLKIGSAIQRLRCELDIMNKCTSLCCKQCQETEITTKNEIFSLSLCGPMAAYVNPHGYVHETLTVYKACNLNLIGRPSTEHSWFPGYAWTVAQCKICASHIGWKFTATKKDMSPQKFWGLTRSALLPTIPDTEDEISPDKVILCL
# T2 sequence (P10275 whole entry L702H/T878A): as the sequence (P10275 whole entry T878A) above, with L702H counted along it
# T2 sequence (Q96SW2 whole entry partner): as the sequence (Q96SW2 whole entry partner) above
Structure (SMILES),DC50 [1],LNCaP AR Degradation Dmax [1],DC50 [2],Dmax [1],Dmax [2],LNCaP AR (L702H) Degradation Dmax [2]
"COc1nc(N2CCN(CC3CCN(c4ccc([C@@H]5CCCN(c6ccc(Cl)c7c(C#N)c[nH]c67)C5)cc4)CC3)CC2)cc2c1C(=O)N(C1CCC(=O)NC1=O)C2 (single isomer, unassigned) [Example 40, 4-Chloro-7-[(3S)-3-(4-{4-[(4-{2-[(3S*)-2,6-dioxopiperidin-3-yl]-4-methoxy-3-oxo-2,3-dihydro-1H-pyrrolo[3,4-c]pyridin-6-yl}piperazin-1-yl)methyl]piperidin-1-yl}phenyl)piperidin-1-yl]-1H-indole-3-carbonitrile]",7 nM,105%,12 nM,,,106%
"N#Cc1c[nH]c2c(N3CCCC(c4ccc(N5CCC(CN6CCC(n7ccc8c(N9CCC(=O)NC9=O)cccc87)CC6)CC5)cn4)C3)ccc(Cl)c12 (single isomer, unassigned) [Example 65, 4-Chloro-7-[(3R*)-3-{5-[4-({4-[4-(2,4-dioxo-1,3-diazinan-1-yl)-1H-indol-1-yl]piperidin-1-yl}methyl)piperidin-1-yl]pyridin-2-yl}piperidin-1-yl]-1H-indole-3-carbonitrile]",9 nM,,798 nM,96%,78%,
"Cc1ccc(C2CCCN(c3ccc(OCCCCN4CCN(c5ccc6c(c5)CN(C5CCC(=O)NC5=O)C6=O)CC4)cc3)C2)c2[nH]cc(C#N)c12 (single isomer, unassigned) [Example 78, 7-{(3R*)-1-[4-(4-{4-[2-(2,6-dioxopiperidin-3-yl)-1-oxo-2,3-dihydro-1H-isoindol-5-yl]piperazin-1-yl}butoxy)phenyl]piperidin-3-yl}-4-methyl-1H-indole-3-carbonitrile]",1370 nM,70%,3100 nM,,,100%
"Cc1ccc(C2CCCN(c3ccc(OCCCCN4CCN(c5ccc6c(c5)CN(C5CCC(=O)NC5=O)C6=O)CC4)cc3)C2)c2[nH]cc(C#N)c12 (single isomer, unassigned) [Example 79, 7-{(3S*)-1-[4-(4-{4-[2-(2,6-dioxopiperidin-3-yl)-1-oxo-2,3-dihydro-1H-isoindol-5-yl]piperazin-1-yl}butoxy)phenyl]piperidin-3-yl}-4-methyl-1H-indole-3-carbonitrile]",9 nM,92%,21 nM,,,79%
"Cc1ccc(C2CCCN(c3cccc(OCCCCN4CCN(c5ccc6c(c5)CN(C5CCC(=O)NC5=O)C6=O)CC4)c3)C2)c2[nH]cc(C#N)c12 (single isomer, unassigned) [Example 80, 7-{(3R*)-1-[3-(4-{4-[2-(2,6-dioxopiperidin-3-yl)-1-oxo-2,3-dihydro-1H-isoindol-5-yl]piperazin-1-yl}butoxy)phenyl]piperidin-3-yl}-4-methyl-1H-indole-3-carbonitrile]",38 nM,,3100 nM,64%,100%,
"Cc1ccc(C2CCCN(c3cccc(OCCCCN4CCN(c5ccc6c(c5)CN(C5CCC(=O)NC5=O)C6=O)CC4)c3)C2)c2[nH]cc(C#N)c12 (single isomer, unassigned) [Example 81, 7-{(3S*)-1-[3-(4-{4-[2-(2,6-dioxopiperidin-3-yl)-1-oxo-2,3-dihydro-1H-isoindol-5-yl]piperazin-1-yl}butoxy)phenyl]piperidin-3-yl}-4-methyl-1H-indole-3-carbonitrile]",> 3000 nM,,3100 nM,,,100%

# The next lines start with results.
DC50 [1],LNCaP AR Degradation Dmax [1],DC50 [2],Dmax [1],Dmax [2],Structure (SMILES),LNCaP AR (L702H) Degradation Dmax [2]
10 nM,97%,22 nM,,,"N#Cc1c[nH]c2c(N3CCCC(c4ccc(N5CCC(CN6CCC(n7ccc8c(N9CCC(=O)NC9=O)cccc87)CC6)CC5)cn4)C3)ccc(Cl)c12 (single isomer, unassigned) [Example 66, 4-Chloro-7-[(3S*)-3-{5-[4-({4-[4-(2,4-dioxo-1,3-diazinan-1-yl)-1H-indol-1-yl]piperidin-1-yl}methyl)piperidin-1-yl]pyridin-2-yl}piperidin-1-yl]-1H-indole-3-carbonitrile]",94%
31 nM,,22 nM,90%,91%,"Cc1ccc(C2CCCN(c3ccc(N4CCC(CN5CCN(c6ccc7c(c6)CN(C6CCC(=O)NC6=O)C7=O)CC5)CC4)cc3)C2)c2[nH]cc(C#N)c12 (single isomer, unassigned) [Example 82, 7-[(3R*)-1-{4-[4-({4-[2-(2,6-dioxopiperidin-3-yl)-1-oxo-2,3-dihydro-1H-isoindol-5-yl]piperazin-1-yl}methyl)piperidin-1-yl]phenyl}piperidin-3-yl]-4-methyl-1H-indole-3-carbonitrile]",
3100 nM,100%,> 3000 nM,,,"Cc1ccc(C2CCCN(c3ccc(N4CCC(CN5CCN(c6ccc7c(c6)CN(C6CCC(=O)NC6=O)C7=O)CC5)CC4)cc3)C2)c2[nH]cc(C#N)c12 (single isomer, unassigned) [Example 83, 7-[(3S*)-1-{4-[4-({4-[2-(2,6-dioxopiperidin-3-yl)-1-oxo-2,3-dihydro-1H-isoindol-5-yl]piperazin-1-yl}methyl)piperidin-1-yl]phenyl}piperidin-3-yl]-4-methyl-1H-indole-3-carbonitrile]",
23 nM,,10 nM,100%,99%,"COc1nc(N2CCN(CC3CCN(c4ccc(N5CCCC(c6ccc(Cl)c7c(C#N)c[nH]c67)C5)cc4)CC3)CC2)cc2c1C(=O)N(C1CCC(=O)NC1=O)C2 (single isomer, unassigned) [Example 91, 4-Chloro-7-[(3R*)-1-{4-[4-({4-[2-(2,6-dioxopiperidin-3-yl)-4-methoxy-3-oxo-2,3-dihydro-1H-pyrrolo[3,4-c]pyridin-6-yl]piperazin-1-yl}methyl)piperidin-1-yl]phenyl}piperidin-3-yl]-1H-indole-3-carbonitrile]",
,100%,,,,"COc1nc(N2CCN(CC3CCN(c4ccc(N5CCCC(c6ccc(Cl)c7c(C#N)c[nH]c67)C5)cc4)CC3)CC2)cc2c1C(=O)N(C1CCC(=O)NC1=O)C2 (single isomer, unassigned) [Example 92, 4-Chloro-7-[(3S*)-1-{4-[4-({4-[2-(2,6-dioxopiperidin-3-yl)-4-methoxy-3-oxo-2,3-dihydro-1H-pyrrolo[3,4-c]pyridin-6-yl]piperazin-1-yl}methyl)piperidin-1-yl]phenyl}piperidin-3-yl]-1H-indole-3-carbonitrile]",100%
